The record followed here is patent publication US9937192B2, “Combination therapy to treat mycobacterium diseases” (priority 2012, dated 2018).

≈ marks a conversion by molar mass, not a printed value. Structures can show the parent of a compound that is named as a salt. Where two headings read alike, the source gives them in different places.

Data set [1] has as its system M. tuberculosis. In words: microbe, parasite or virus in culture. The format is cell-based. As to conditions: for MIC: Mycobacterium tuberculosis, H37RA, read-out: MIC, Broth.
Data set [2] concerns intracellular M. tuberculosis in THP-1 cells. The data set can be described thus: microbe, parasite or virus in culture. The format is cell-based. As to conditions: Mycobacterium tuberculosis, H37RA; for MIC: read-out: MIC, Macrophage Cells.
In data set [3] the test system is M. tuberculosis H37Rv. In words: Minimum bactericidal concentration (MBC) assay. The format is cell-based. As to conditions: 0.125 ug/mL.
Data set [4] relates to Non-Replicating (NRP) M. tuberculosis H37Ra. The data set can be described thus: Non-replicating (NRP) M. tuberculosis H37Ra (luciferase) culture assay. The format is cell-based. Particulars: Mycobacterium tuberculosis, 336 h, read on day 14.
Data set [5] relates to M. tuberculosis H37Rv. The data set can be described thus: Monotherapy against established TB in mice (dose-ranging activity study). The format is in vivo. Particulars: for Log cfu (lung) / Log Reduction: BALB/c mice, M. tuberculosis H37Rv; for Log cfu (lung): 4 weeks of treatment; for Log Reduction: 4 weeks, vs untreated control.
Data set [6] in a line: Rat IV Study (pharmacokinetics). As to conditions: male Sprague Dawley rats, plasma analyte = label.
Data set [7] relates to Mycobacterium tuberculosis. The data set can be described thus: Mycobacterium tuberculosis Serum Shift MIC Assay (Protocol 5). The format is cell-based. As to conditions: ATCC 35801 / ERDMAN. The source says: Protocol 5. Protocol for Mycobacterium tuberculosis Serum Shift MIC Assay
Media Prep: • 1. […] It was important that all media and supplements were sterilized prior to MICs. • 2. Prepared all media below and inoculated as described in next section. Tested all compounds against Mtb using each media. • a. […] 7H9+0.2% glycerol+2 g/L dextrose+0.85 g/L NaCl+0.003 g/L catalase (0% FBS). • c. 2×7H9+0.2% glycerol+2 g/L dextrose+0.85 g/L NaCl+0.003 g/L catalase combined with equal volume Fetal Bovine Serum (50% FBS).
Inoculum Prep: • 1. Using BBL Prompt, picked 5-10 well-separated colonies and inoculated 1 ml sterile saline that came in the kit. Typically plates were two to three weeks of age when used for this assay due to the slow growth of this organism in culture. • 2. Vortexed well, then sonicated in water bath for 30 sec providing a suspension of ˜10^8 cells/ml. Actual density could be confirmed by plating out dilutions of this suspension. • 3. Prepared inoculum in each of the three media formulations by diluting the BBL Prompt suspension 1/200 (for example: transferred 0.2 ml of cells to 40 ml of medium) to obtain a starting cell density of […]. • 4. Used 100 μl cells (˜5×10^4 cells) to inoculate each microtiter well containing 1 μl of drug in DMSO (see below).
Drug Dilutions, Inoculation, MIC Determination: • 1. Control drug stocks Isoniazid and Novobiocin were prepared at 10 mM in 100% DMSO while Ciprofloxacin and Rifampin were prepared at 1 mM in 50% DMSO and 100% DMSO, respectively. Prepared dilutions—dispensed 100 μL of the stock solution into the first column of a 96-well plate. Prepared 11-step, 2-fold serial dilutions across the row for each compound by transferring 50 μl from column 1 into 50 μl of DMSO in column 2. Continued to transfer 50 μL from column 2 through column 11 while mixing and changing tips at each column. Left column 12 with DMSO only as a control. • 2. Transferred 1 μl of each dilution into an empty microtiter well prior to the addition of 100 μl of cells. The starting concentration of Isoniazid and Novobiocin was 100 μM after the dilution into medium+cells; the starting concentration of Ciprofloxacin and Rifampin was 10 μM after the dilution into medium+cells. Compound concentrations decreased in 2× steps moving across the rows of the microtiter plate. […] Measured background fluorescence at Excitation 492 nm, Emission 595 nm and returned the plate to the incubator for another 24 hours.
After 24 hours the fluorescence of each well was measured at Excitation 492 nm, Emission 595 nm.
Percent inhibition by a given compound was calculated as follows: Percent inhibition=100−([well fluorescence-average background fluorescence]/[DMSO control−average background fluorescence]×100). […]

Data set [8] is described as follows: Seven-Day Oral (Gavage) Toxicity and Toxicokinetics Study in Rats. The data set is classed as in vivo, Crl:CD(SD) rats. As to conditions: male rats. The text has this: Seven-Day Oral (Gavage) Toxicity and Toxicokinetics Study in Rats
Crl:CD(SD) rats were obtained from Charles River Laboratories of Stone Ridge, N.Y. The animals were laboratory bred and experimentally naïve. Rats were chosen because they are a species that is commonly used for nonclinical toxicity evaluations.
Animals received the test article or vehicle by oral gavage for 7 consecutive days and were terminated the day following completion of dosing. The first day of dosing was designated as Day 1 of the study. The animals were evaluated for changes in clinical signs, body weight, and other parameters as described below.
The vehicle and test article were administered by oral gavage once daily for 7 consecutive days at a dose volume of 10 mL/kg body weight for Group A and Groups B-D, respectively. The test article and vehicle were administered by oral gavage twice daily, approximately 8 hours apart, for 7 consecutive days at a dose volume of 10 mL/kg body weight for Group E and Group F, respectively. The actual volume administered to each animal was calculated and adjusted based on the most recent body weight of each animal.
During the treatment period, daily cageside observations were made and recorded predose and postdose (following the first dose only). The postdosing observations made during treatment occurred at the following times based on Cmax/Tmax for the two compounds from previous studies:
Prior to start of dosing, body weights were measured for randomization on Day 1. During the treatment, body weights were measured on Day 1 and Day 7. In addition, fasted body weights were measured prior to necropsy for calculation of organ/body weight ratios.
Throughout the study, food consumption was measured daily starting 3 days prior to start of dosing.
Blood samples for evaluation of hematology, coagulation, and serum chemistry parameters were collected from all animals from the retro-orbital plexus (under CO2/O2 anesthesia, for the main study animals) or jugular vein cannula (for the toxicokinetic animals) prior to necropsy. Due to residual heparin used to keep the cannulas patent for the toxicokinetic animals, coagulation samples from these rats, were not able to be analyzed. The animals were fasted overnight prior to blood collection. On the day of blood collection for clinical pathology analyses, the animals were not necropsied until after the blood was collected and the samples judged to be acceptable by the clinical pathology group.
On the 1st and 7th day of dosing, blood samples (approximately 0.5 mL/sample) were collected from the jugular vein cannula for all toxicokinetic animals at the timepoints listed below into K3EDTA-containing tubes. […] Prior to each collection, a small sample of blood (with heparin blocking solution) was removed from the cannula and discarded. A new syringe was placed on the cannula, and the protocol-required sample was taken. The syringe with the blood sample was removed, and a new syringe with saline attached to the cannula. Blood volume was replaced with an equal volume of saline and then blocking solution placed in the cannula. Each animal was returned to its cage until the next collection timepoint.
For all animals euthanized at scheduled necropsies, the kidneys, liver, and prostate gland were weighed. Following weighing, an approximate 1 gram sample of liver and kidney was weighed, transferred to Precellys 7 mL CK28 Tissue Homogenizing tubes (Cat. No. 0904-01), snap-frozen, and analyzed.
For all animals scheduled for the terminal necropsy, the kidneys, liver, and prostate were embedded in paraffin, sectioned and stained with hematoxylin and eosin for further examination by light microscopy. For Groups A, D, E, and F only, the remaining tissues listed above were embedded in paraffin, sectioned and stained with hematoxylin and eosin for further examination by light microscopy. […]

Where [9] appears, read: Compound W dosed IV bolus 1 mg/kg in D5W.
The mark [10] stands for this setting: Compound W dosed IV bolus 5 mg/kg in D5W.
Where [11] appears, read: 100 mg/kg daily 5 days per week.

As to `CO[C@@H]1[C@@H](OC(N)=O)[C@@H](O)[C@H](Oc2ccc3c(O)c(NC(=O)c4ccc(O)c(CC=C(C)C)c4)c(=O)oc3c2C)OC1(C)C` [Novobiocin], the Erdman (MIC) in data set [1] is 61 µg/mL. In data set [2] (THP-1, 120 h, read-out: Mtb H37Ra in THP1 Cells (IC50)), the IC50 is 2.1 µg/mL (≈ 3.43 µM).
`NNC(=O)c1ccncc1` [Isoniazid, isonicotinohydrazide, reference compound] showed a Log cfu in data set [3] of 4.28. Besides, the entries for the “Log Reduction” value in data set [3] (vs untreated control) and in data set [5] (10 mg/kg daily 5 days per week) were 1.85 and 0.99, respectively. In addition, the MIC in data set [1] was 0.21 µg/mL (≈ 1.53 µM); in data set [2], 0.012 µg/mL (≈ 0.0875 µM). In data set [4], this compound had an IC50 greater than 50 µg/mL. Also, the “Log cfu (lung)” value in data set [5] (10 mg/kg daily 5 days per week) came out at 5.01.
As to `CO[C@H]1/C=C/O[C@@]2(C)Oc3c(C)c(O)c4c(O)c(c(/C=N/N5CCN(C)CC5)c(O)c4c3C2=O)NC(=O)/C(C)=C\C=C\[C@H](C)C(O)[C@@H](C)[C@@H](O)[C@@H](C)[C@H](OC(C)=O)[C@@H]1C` (stereo partly drawn) [Rifampin, (7S,9E,11S,12R,13S,14R,15R,16R,17S,18S,19E,21Z)-2,15,17,27,29-pentahydroxy-11-methoxy-3,7,12,14,16,18,22-heptamethyl-26-{(E)-[(4-methylpiperazin-1-yl)imino]methyl}-6,23-dioxo-8,30-dioxa-24-azatetracyclo[23.3.1.1^4.7.0^5.28]triaconta-1(28),2,4,9,19,21,25(29),26-octaen-13-yl acetate], the MIC in data set [1] was found to be 0.03 µg/mL. Further, the IC50 in data set [4] was less than 0.05 µg/mL. Besides, the MIC in data set [2] is 0.008 µg/mL. Also, in data set [5] (10 mg/kg daily 5 days per week), the “Log cfu (lung)” value was 4.38 and the “Log Reduction” value amounted to 1.62.
`CCNC(=O)Nc1nc2cc(-c3cnc(C(C)(C)OP(=O)([O-])[O-])nc3)c(F)c([C@H]3CCCO3)c2[nH]1.[Na+].[Na+]` [Compound W, disodium (R)-2-(5-(2-(3-ethylureido)-6-fluoro-7-(tetrahydrofuran-2-yl)-1H-benzo[d]imidazol-5-yl)pyrimidin-2-yl)propan-2-yl phosphate]: in data set [6] (setting [9]), the AUCextrap turned out to be 419 ng·h/mL, the Cl_obs was 46.7 mL/min/kg, the Vss_obs was determined as 0.38 L/kg and the t½ is 0.9 h. In addition, in data set [6] (setting [10]), the AUCextrap was 1120 ng·h/mL, the Cl_obs turned out to be 84.6 mL/min/kg, the Vss_obs was 5.8 L/kg and the t½ amounted to 7.2 h. For the same compound, in data set [5] (10 mg/kg daily 5 days per week), the “Log cfu (lung)” value is reported as 6.38 and the “Log Reduction” value turned out to be 0. For the same compound, in data set [5] (30 mg/kg daily 5 days per week), the “Log cfu (lung)” value was 5.51 and the “Log Reduction” value worked out at 0.49. In data set [5] (setting [11]), the “Log cfu (lung)” value worked out at 5.35 and the “Log Reduction” value was found to be 0.65. The “activity compared with no treatment” value in data set [5] (at 30 and 100 mg/kg, p<0.01 by one-way ANOVA with Dunnett's post-test) is listed as “superior to no treatment”.
For the compound `CC(=O)NC[C@H]1CN(c2ccc(N3CCOCC3)c(F)c2)C(=O)O1` [Linezolid], the values for the MIC in data set [1] and in data set [2] were 0.53 µg/mL (≈ 1.57 µM) and 0.37 µg/mL (≈ 1.1 µM), respectively.
The corresponding values for `CC[C@@H](CO)NCCN[C@@H](CC)CO` [Ethambutol] are 2.55 µg/mL (≈ 12.5 µM) and 1.26 µg/mL (≈ 6.17 µM).
With `CCNC(=O)Nc1nc2cc(-c3cnc(C(C)(C)O)nc3)cc([C@H]3CCCO3)c2[nH]1` [Compound 13, methanesulfonic acid salt of 1-ethyl-3-[5-[2-(1-hydroxy-1-methyl-ethyl)pyrimidin-5-yl]-7-[(2R)-tetrahydrofuran-2-yl]-1H-benzimidazol-2-yl]urea], the MIC in data set [7] (M. tuberculosis Erdman ATCC 35801, read-out: MIC) is 0.045 µg/mL; in data set [7] (M. tuberculosis Erdman ATCC 35801 with Mouse Serum) it was 2 µg/mL. For the same compound, the “dose levels at which no adverse toxicity was demonstrated” value in data set [8] (7 days oral gavage) is on record as “up to 200 mg/kg/day”. The “adverse observations or effects on mean body weight” value in data set [8] (7 days oral gavage, all dose groups) was “No adverse observations or effects on mean body weight”. In data set [8] (any dose regimen), the histopathological findings entry is “No test article-related histopathological findings”. Besides, the “NOEL (No-Observable-Effect-Level)” value in data set [8] (once a day for 7 days orally via gavage) was determined as 200 mg/kg. Moreover, the Mean food consumption entry in data set [8] (once daily 100 or 200 mg/kg, not considered adverse) was “reduced”. The “exposures for different dosage levels” value in data set [8] (toxicokinetics) is recorded as “dose related”.
